Ends that are not written are not given here.
Assays:
[1] = dog, in vivo, iv
Procedure: All experimental procedures were performed in accordance with regulations and ethical guidelines from Canadian Council for the Care of Laboratory Animals, and received approval by the animal ethics and research committee of the Montreal Heart Institute. Mongrel dogs weighing between 20-30 kg and presenting negative Dirofilaria imitis blood test results were anesthetized by an initial intravenous dose of pentobarbital sodium (50 mg/kg). Animals were intubated and mechanically ventilated using room air. Cutaneous electrocardiographic leads were installed, and 18F cathlon with three-way was installed on both saphenous vein for 0.9% sodium chloride perfusion, radiolabelled injection and blood collection. A right arterial femoral catheter was also inserted using the Seldinger technique for continuous blood pressure monitoring.
Purified and buffered ^99mTc-DTPA-hAM1-52 samples were injected in right saphenous vein (n=6). A series of 2 mL blood samples were collected 1 min after the initial AM injection for a 10-min period, then repeated every 5 min for the following 50-min period. […]
Plasma kinetics of ^99mTc-DTPA-hAM1-52 was fitted using a two-phase exponential decay equation with GraphPad Prism version 4.0 software. Time effects on each organ biodistribution were analyzed by two-way repeated measures ANOVA followed, when a significant interaction was found, by Bonferroni/Dunn t-test. […]

[2] = Biodistribution and pulmonary retention of 125I-rAM(1-50) in rats after intravenous or intra-arterial injection; assay type: in vivo, rat; conditions: drug given 5 min before tracer
Procedure: (§1) All experimental procedures were performed in accordance with the regulations and ethical guidelines from Canadian Council for the Care of Laboratory Animals, and received approval by the Animal Ethics and Research Committee of the Montreal Heart Institute. Male Sprague-Dawley rats (Charles River), weighing between 400-450 g, were anaesthetized by an initial intramuscular dose of xylazine (10 mg/kg of body weight) and ketamine (50 mg/kg of body weight), followed by an intra-peritoneal injection of heparin (2000 units; Sigma). Catheters were inserted into the right carotid artery and jugular vein. Heart rate and systemic blood pressure were monitored continuously. […] Venous and arterial blood samples (3 ml) were collected and centrifuged (1875 g, 15 min, 4° C.) and the plasma saved for subsequent measurement of irAM (immunoreactive AM). A similar amount of saline was infused into the animals to prevent hypovolaemia.
The animals were then killed and the lungs, liver, kidneys (en bloc with the adrenal glands) and heart were removed and gravity drained. […] Results are expressed as a percentage of total radioactivity injected.
The drugs were given by either intraarterial (n=10 in each group) or intravenous (n=10 in each group) injection 5 min before the ^125I-rAM(1-50) bolus. Plasma samples and tissues were treated as described above.
(§2) Multiple group comparisons were performed by factorial ANOVA, followed, when a significant interaction was found, by the Bonferroni/Dunn t test. Plasma kinetics of 125I-rAM(1-50) was fitted using a two-phase exponential decay equation with GraphPad Prism (version 4.0) software. […] Comparison between venous and arterial rAM(1-50) levels in plasma was performed with a two-tailed paired Student's t test. In the canine experiments, the effect of drugs on AM extraction was analyzed by two-tailed paired Student's t tests. A P value of <0.05 was considered significant. All results are reported as means ±S.E.M.

[3] = Plasma kinetics of 125I-rAM(1-50) after single intravenous injection in rats; assay type: in vivo, rat; conditions: drug given 5 min before the 125I-rAM(1-50) bolus
Procedure: as §1
The animals were then killed and the lungs, liver, kidneys (en bloc with the adrenal glands) and heart were removed and gravity drained. […] Results are expressed as a percentage of total radioactivity injected. […]
Multiple group comparisons were performed by factorial ANOVA, followed, when a significant interaction was found, by the Bonferroni/Dunn t test. […] In the canine experiments, the effect of drugs on AM extraction was analyzed by two-tailed paired Student's t tests. […]

[4] = In vivo single-pass pulmonary clearance of 125I-rAM(1-50) in dogs, single bolus indicator-dilution technique; design: species or system dog; conditions: for mean single-pass pulmonary extraction of 125I-rAM(1-50) after administration of the drug: dogs, drug as intravenous bolus of 100 nmol 5 min before second experiment, mean ±S.E.M.
Procedure: Dogs were anaesthetized and prepared as described in detail in reference, which is hereby incorporated by reference. A catheter was inserted into the carotid artery and positioned just above the aortic valve. This catheter was connected to a peristaltic pump for automated blood withdrawal. Another catheter was placed into the jugular vein and positioned in the right ventricular outflow tract to allow bolus injection of the study tracers. A bolus was prepared by adding 3.3 μCi of 125I-rAM(1-50) (2.9 pmol) to 3 ml of Evans-Blue-dye labelled albumin and 0.9% saline to give a final volume of 6 ml. The mixture was separated into three equal parts for the two successive experiments in each animal and to realize dilution-curve standards. A baseline single-bolus indicator-dilution experiment was performed.
The collected samples were processed and indicator-dilution curves constructed and analyzed as described in previously cited reference 13. Cardiac output and mean tracer AM extraction during the pulmonary transit time were computed from the curves. Mean tracer extraction corresponded to the difference between the areas of the outflow curve of the vascular reference (albumin) and that of the extracted tracer (AM). Recirculation of the tracers apparent in the terminal portion of the curves was removed by linear extrapolation of the semi-logarithmic down slopes.
as §2

| Compound | ratio of rate constant for exchange between the central and peripheral compartments (k1-2/k2-1) [1] | effect of prior administration on 125I-rAM(1-50) activity retained in kidneys [2] | effect of prior administration on biodistribution of 125I-rAM(1-50) [2] | effect of prior administration on pulmonary first-pass retention of 125I-rAM(1-50) (intra-arterial compared with intravenous) [2] | effect of administration prior to radiolabelled rAM(1-50) on its plasma kinetics [3] | mean single-pass pulmonary extraction of 125I-rAM(1-50) after administration of the drug [4] | effect of prior administration on 125I-rAM(1-50) lung activity [2] | effect of prior administration on amount of 125I-rAM(1-50) retained by the liver, kidneys and heart [2] | mean extraction of 125I-rAM(1-50) after injection of the drug, typical experiment ([4]; same dog, second experiment (FIG. 4B)) |
| --- | --- | --- | --- | --- | --- | --- | --- | --- | --- |
| CC[C@H](C)[C@H](NC(=O)[C@H](CCC(N)=O)NC(=O)[C@H](Cc1c[nH]cn1)NC(=O)[C@H](C)NC(=O)[C@H](CC(C)C)NC(=O)[C@H](CCCCN)NC(=O)[C@H](CCC(N)=O)NC(=O)[C@@H](NC(=O)[C@@H](NC(=O)[C@@H]1CSSC[C@H](NC(=O)CNC(=O)[C@H](Cc2ccccc2)NC(=O)[C@H](CO)NC(=O)[C@H](CCCNC(=N)N)NC(=O)[C@H](CC(C)C)NC(=O)CNC(=O)[C@H](CCC(N)=O)NC(=O)[C@H](Cc2ccccc2)NC(=O)[C@H](CC(N)=O)NC(=O)[C@H](CC(N)=O)NC(=O)[C@H](CCSC)NC(=O)[C@H](CO)NC(=O)[C@H](CCC(N)=O)NC(=O)[C@H](CCCNC(=N)N)NC(=O)[C@H](Cc2ccc(O)cc2)NC(=O)CN(CCN(CCN(CC(=O)O)CC(=O)O)CC(=O)O)CC(=O)O)C(=O)N[C@@H](CCCNC(=N)N)C(=O)N[C@@H](Cc2ccccc2)C(=O)NCC(=O)N[C@@H]([C@@H](C)O)C(=O)N1)[C@@H](C)O)C(C)C)C(=O)N[C@@H](Cc1ccc(O)cc1)C(=O)N[C@@H](CCC(N)=O)C(=O)N[C@@H](Cc1ccccc1)C(=O)N[C@H](C(=O)N[C@@H](CC(=O)O)C(=O)N[C@@H](CCCCN)C(=O)N[C@@H](CC(=O)O)C(=O)N[C@@H](CCCCN)C(=O)N[C@@H](CC(=O)O)C(=O)N[C@@H](CC(N)=O)C(=O)N[C@H](C(=O)N[C@@H](C)C(=O)N1CCC[C@H]1C(=O)N[C@@H](CCCNC(=N)N)C(=O)N[C@@H](CO)C(=O)N[C@@H](CCCCN)C(=O)N[C@H](C(=O)N[C@@H](CO)C(=O)N1CCC[C@H]1C(=O)N[C@@H](CCC(N)=O)C(=O)NCC(=O)N[C@@H](Cc1ccc(O)cc1)C(N)=O)[C@@H](C)CC)C(C)C)[C@@H](C)O [99mTc-DTPA-hAM1-52, metal not drawn] | 24.09 |  |  |  |  |  |  |  |  |
| hAM(22-52): C-terminal AM fragment that blocks the specific AM receptor (Bachem) |  | elevated the retained activity | did not significantly modify this distribution | not affected | did not modify plasma kinetics | 31.4±3.3% |  |  |  |
| rAM(1-50): unlabelled rat adrenomedullin, amino acids 1-50 (American Peptide) (YRQSMNQGSRSTGCRFGTCTMQKLAHQIYQFTDKDKDGMAPRNKISPQGY; ends and bridges not checked; cysteine pairing not given here) |  |  |  | did not decrease further the already lowered pulmonary retention after intra-arterial compared with intravenous injections | did not modify plasma kinetics | 21.9±2.4% | important reduction in lung activity | significantly increased | 12% |
